Measured values taken from publication PMC5841205, “Pharmacological targeting of apelin impairs glioblastoma growth” (Brain, 2017).
Positions of bridges follow the written chain, without caps; N, C: chain ends. Residues, ends and D or L forms follow the SMILES beside them.

Experiments:
[1] = Brain pharmacokinetics after intraperitoneal administration; format: in vivo, mouse
Protocol: B. MM54 compound was solubilized in water and administered intraperitoneally (IP) at the dose of 3.6 mg/kg to healthy mice.
Mice (3/group) were sacrificed at 10 min, 30 min, 60 min, 2h, 4h, 6h, 8h and 24h post-injection. Plasma and brains were collected and further processed for LC-MS/MS analysis. B/P index is 0.24. AUC is area under the curve. n.d. stands for ‘not able to be

[2] = tested on: heart, kidney and liver of mice; experiment: Histological and biochemical analysis of heart, kidney and liver; format: in vivo, mouse
Protocol: To test potential toxic effects of MM54 and MM193 in vivo, mice were administered 2 mg/kg of MM54, MM193 or vehicle bi-weekly for 4 weeks. At sacrifice, blood was taken for analysis and the heart, kidney, aorta and liver removed, weighed and fixed for histological analysis. For the glycaemic study, animals were starved for 6 h prior to sacrifice. […]
In order to test potential toxic effects of MM54 in vivo, C57Bl/6J female mice were administered 2 mg/kg of MM54
or DMSO vehicle, bi-weekly for 4 weeks. At sacrifice, blood was taken for analysis and the heart, kidney, aorta and
liver removed, weighed and fixed for histological analysis (as shown in Figure S4). n=4 mice/group, 63 mean±SEM.

C57Bl/6J female mice = experiment: Complete blood count; format: in vivo, mouse
Protocol: To test potential toxic effects of MM54 and MM193 in vivo, mice were administered 2 mg/kg of MM54, MM193 or vehicle bi-weekly for 4 weeks. At sacrifice, blood was taken for analysis and the heart, kidney, aorta and liver removed, weighed and fixed for histological analysis. For the glycaemic study, animals were starved for 6 h prior to sacrifice.
Total blood count DMSO MM54
Red blood cells (M/µl) 6,8 ± 0,9 7,5 ± 0,3
Mean corpuscular volume (fl) 46,4 ± 0,2 47,2 ± 0,4
Mean corpuscular haemoglobin (pg) 13,0 ± 0,0 13,2 ± 0,2
Mean corpuscular haemoglobin concentration (g/dl) 27,9 ± 0,1 27,9 ± 0,3 Red cell distribution width (%) 15,7 ± 0,2 16,1 ± 0,1
Table S5. Blood analysis after MM54 treatment
In order to test potential toxic effects of MM54 in vivo, C57Bl/6J female mice were administered 2 mg/kg of MM54 or DMSO vehicle, bi-weekly for 4 weeks. At sacrifice, blood was taken for analysis and the heart, kidney, aorta and liver removed, weighed and fixed for histological analysis (as shown in Figure S4). n=4 mice/group, 63 mean±SEM.

Solubility in vehicles = format: physicochemical
Protocol: Conditions Solubility Solubility […]
saline (10%) + hydroxypropyl-β-cyclodextrin >0.69 >1.20 […]
A. MM54 compound (1 mg) was re-suspended in the different vehicles for 24h, RT, under gentle rotation. Solutions were analysed by HPLC and concentrations calculated using DMSO-re-suspended MM54 as standard. […]

[3] = tested on: panel of normal human and primary glioblastoma cell lines; experiment: Cell viability (UptiBlue), cell line panel; format: cell-based; settings: MM54 2, 20 and 100 μM, 3 days; cardiomyocytes, HaCAT, CaCo2, hCMEC/D3, Jurkat, SH-SY5Y, SVGp12, glioblastoma lines
Protocol: Cell viability in response to MM54 was tested using the UptiBlue reagent (Interchim), a fluorometric/colorimetric growth indicator based on the detection of metabolic activity. Briefly, cells were seeded at a density of 2 × 10^3 per well, UptiBlue added at a concentration of 10% v/v and cells maintained at 37°C 5% CO2 until analysis. Absorbance was measured at Day 5 following treatment at 570 and 600 nm on a FLUOStar OPTIMA (BMG Labtech) plate reader, and the percentage of cell viability calculated according to the manufacturer’s instructions.
Figure 5 Pharmacological inhibition of APLNR by MM54 impairs the in vitro expansion of temozolomide-resistant GSCs. (A) Cell viability following treatment with DMSO, MM54 (2, 20 and 100 μM) or temozolomide (TMZ, 50 μM) was measured using UptiBlue in different cell types for 3 days. […] (B and C) Cell viability following treatment with DMSO or TMZ (100 μM) was measured using UptiBlue in GSCs #1, #4, #9, and #12 for 3 days. […] (D) GSC#1 viability was assessed following combined treatment with MM54 (0.2–20 μM) and TMZ (constant ratios TMZ:MM54 2.5:1, 5:1, and 10:1) in NS and human brain endothelial cell-conditioned medium (EC-CM) conditions. (E and F) Tumoursphere per field of view (fov) and ALDH activity were assessed in response to MM54 (0.2–100 μM) or TMZ (10–100 μM) treatment at Day 5. […]

[4] = healthy mice, IP 3.6 mg/kg in water, 3/group, LC-MS/MS
[5] = MM54 2 mg/kg bi-weekly, 4 weeks, female C57Bl/6J mice, n=4, mean±SEM
[6] = saline (10%) + hydroxypropyl-β-cyclodextrin, 1 mg, 24h, RT, gentle rotation, HPLC
[7] = saline (10%) + kolliphor EL, 1 mg, 24h, RT, gentle rotation, HPLC
[8] = saline (15%) + kolliphor HS15 + PEG (10%) + ethanol (5%), 1 mg, 24h, RT, gentle rotation, HPLC
[9] = saline (15%) + kolliphor HS15, 1 mg, 24h, RT, gentle rotation, HPLC
[10] = saline (NaCl 0.9%), 1 mg resuspended, 24h, RT, gentle rotation, HPLC

Compound: CC(C)C[C@@H]1NC(=O)[C@H](CCCNC(=N)N)NC(=O)[C@@H]2CCCN2C(=O)[C@H](CCCNC(=N)N)NC(=O)[C@@H](NC(=O)[C@H](Cc2c[nH]cn2)NC(=O)[C@H](CCCCN)NC(=O)[C@@H]2CSSC[C@H](N)C(=O)N[C@@H](CCCNC(=N)N)C(=O)N3CCC[C@H]3C(=O)N[C@@H](CCCNC(=N)N)C(=O)N[C@@H](CC(C)C)C(=O)N2)CSSC[C@@H](C(=O)O)NC1=O [MM54, cyclo(1–6)CRPRLC-KH-cyclo(9–14)CRPRLC] (H-CRPRLCKHCRPRLC-OH; disulfide 1-6, 9-14)
- detection in brain ([1]; healthy animals, intraperitoneal): detected in the plasma and the brain
- Cmax (µM), brain [1, 4]: 0.14 µM
- Cmax (µg.ml-1), brain [1, 4]: 0.26 µg/mL
- Time Cmax, brain [1, 4]: 10 min
- Kp ([1]; mouse, healthy mice, IP 3.6 mg/kg in water, brain vs plasma, read-out: B/P index): 0.24
- histological and biochemical analysis of heart, kidney and liver ([2]; MM54 2 mg/kg bi-weekly for 4 weeks vs vehicle): revealed no differences between MM54-treated animals and vehicle controls
- overt adverse effects in vivo ([2]; present dose (2 mg/kg), repeated administration): does not exert any overt adverse effects in vivo
- complete blood count vs vehicle (C57Bl/6J female mice; MM54 2 mg/kg bi-weekly for 4 weeks, healthy animals): no significant differences
- Basophils (C57Bl/6J female mice; [5]): 0,19 ± 0,12 K/µl
- Eosinophils (C57Bl/6J female mice; [5]): 0,52 ± 0,28 K/µl
- Haemoglobin (C57Bl/6J female mice; [5]): 9,9 ± 0,6 g/dl
- Hematocrit (C57Bl/6J female mice; [5]): 35,4 ± 1,9%
- Lymphocytes (C57Bl/6J female mice; [5]): 7,50 ± 0,51 K/µl
- Mean corpuscular haemoglobin (C57Bl/6J female mice; [5]): 13,2 ± 0,2 pg
- Mean corpuscular haemoglobin concentration (C57Bl/6J female mice; [5]): 27,9 ± 0,3 g/dl
- Mean corpuscular volume (C57Bl/6J female mice; [5]): 47,2 ± 0,4 fl
- Mean platelet volume (C57Bl/6J female mice; [5]): 4,45 ± 0,16 fl
- Monocytes (C57Bl/6J female mice; [5]): 0,42 ± 0,11 K/µl
- Neutrophils (C57Bl/6J female mice; [5]): 2,56 ± 0,66 K/µl
- Platelet (C57Bl/6J female mice; [5]): 301 ± 27 K/µl
- Red blood cells (C57Bl/6J female mice; [5]): 7,5 ± 0,3 M/µl
- Red cell distribution width (C57Bl/6J female mice; [5]): 16,1 ± 0,1%
- solubility (Solubility in vehicles; in the tested solutions (vehicles)): good solubility in the tested solutions
- Solubility (mM), saline + hydroxypropyl-β-cyclodextrin (Solubility in vehicles; [6]): > 0.69 mM
- Solubility (mg.ml-1), saline + hydroxypropyl-β-cyclodextrin (Solubility in vehicles; [6]): > 1.20 mg/mL
- Solubility (mM), saline + kolliphor EL (Solubility in vehicles; [7]): > 0.60 mM
- Solubility (mg.ml-1), saline + kolliphor EL (Solubility in vehicles; [7]): > 1.04 mg/mL
- Solubility (mM), saline + kolliphor HS15 + PEG + ethanol (Solubility in vehicles; [8]): > 0.73 mM
- Solubility (mg.ml-1), saline + kolliphor HS15 + PEG + ethanol (Solubility in vehicles; [8]): > 1.27 mg/mL
- Solubility (mM), saline + kolliphor HS15 (Solubility in vehicles; [9]): > 0.69 mM
- Solubility (mg.ml-1), saline + kolliphor HS15 (Solubility in vehicles; [9]): > 1.20 mg/mL
- Solubility (mg.ml-1), saline (Solubility in vehicles; [10]): > 1.27 mg/mL
- solubility at 24 h (Solubility in vehicles; [10]): > 0.73 mM
- toxicity (viability) in cell line panel [3]: no overtly toxic effects on any of the cell lines tested
